Measurements as given in US20050014731A1, “Treatment of Th1 dominated immunological disease states with non-endogenous gestagen compounds” (Solvay Pharmaceuticals GmbH, priority 2002, published 2005).

Key:
[1] = system: peripheral blood mononuclear cells (=PBMC); assay: Th1 and Th2 cytokine profiles produced by mitogen-stimulated PBMC (ELISA), ex vivo; type: cell-based, human
Procedure: The effects of dydrogesterone on Th1 and Th2 cytokine profiles produced by mitogen-stimulated peripheral blood mononuclear cells (=PBMC) were determined. Several studies have pointed to a deviation of cytokine profiles in women when during pregnancy. Pregnancy is associated with a shift towards Th2 bias, evinced by changes in peripheral T cells, by cytokine production by peripheral lymphocytes and by cytokine changes at the maternal-fetal interface. Unexplained recurrent spontaneous abortion (URSA) seems to be associated with a stronger bias towards Th1 cytokines. Women who have earlier been gone through URSA may therefore be regarded as a pre-selected group of patients that will typically respond to an immunological stimulation by showing a Th1 dominated pattern of immune response. The pharmacological test was therefore performed with a suitable URSA group which comprised of women admitted with spontaneous abortion for evacuation, (i) who have had at least two previous unexplained miscarriages, (ii) who were currently undergoing at least a 3rd abortion and (iii) who had been fully investigated. The relationship between habitual abortion and cytokine production response in 54 women with normal pregnancy (and at least 3 previous normal pregnancies) and 23 women with a history of habitual abortion of unexplained aetiology (URSA group) has been investigated. Mitogen-induced stimulation of Peripheral Blood Mononuclear Cells (PBMC): Peripheral blood was obtained by venipuncture from the abortion group on the day of abortion. PBMC is separated by Ficoll-paque (Pharmacia Biotech, Sweden) density gradient centrifugation, suspended in RPMI medium (=“Roswell Park Memorial Institute”-medium; obtained from GIBCO/BRL, USA) containing 10% fetal calf serum, aliquoted into 96 well tissue culture plates at a density of 100.000 cells per well and then stimulated with the mitogen phytohemagglutinin (=PHA, Sigma Chemicals, USA) at a concentration of […] for a period of 96 hours, with autologous placental antigens or with trophoblast antigens. Progesterone, dydrogesterone (Duphaston®) and RU486 (=mifepristone) was added in different combinations as described below. Progesterone was tested at concentrations of […]. RU486 was tested at equivalent concentrations. Culture supernatants were harvested at 96 hours for determination of the levels of cytokines secreted by the PBMC into the supernatants. Cytokine levels were determined in the supernatants by enzyme-linked immunosorbent assay (=ELISA). Protocol of Experimental Samples: Each sample was tested in the following manner: • PBMC+mitogen • PBMC+mitogen+progesterone • PBMC+mitogen+progesterone+RU486 • PBMC+mitogen+dydrogesterone • PBMC+mitogen+dydrogesterone+RU486 • PBMC+mitogen+Carrier • PBMC+mitogen+Carrier+RU486 Determination of cytokine levels by ELISA: Th1 cytokines TNF-α and IFN-γ, and Th2 cytokines IL-4, IL-6 and IL-10 were evaluated in these samples by ELISA using kits that were obtained from Immunotech SA, France. These consisted of “sandwich ELISA”; briefly the first step leads to the capture of the relevant cytokine by monoclonal anti-cytokine antibodies bound to the wells of microtiter plates. In the second step, a second biotinylated monoclonal is added together with streptavidin-enzyme (peroxidase or alkaline phosphatase) conjugate. The biotinylated antibody binds to the solid phase antibody-antigen complex, and in turn, binds the conjugate. After incubation the wells are washed and the binding of the streptavidin-enzyme via biotin is followed by the addition of a chromogenic substrate. The intensity of the coloration produced is proportional to the concentration of the cytokine in the sample. Standard curves are plotted for each of the cytokines using reference recombinant cytokines and the results are read from these curves. The sensitivity of each of the assays is as follows: 5 pg/ml of TNF-α, 0.08 IU/ml of IFN-γ, 5 pg/ml of IL-4 and 5 pg/ml of IL-10. […]

pregnant mice = assay: murine stress-induced abortion model; type: in vivo
From the text: The results of the pharmacological test method given above can also be confirmed in an in vivo test model involving pregnant mice. […] Pregnant mice were exposed to ultrasound on day 5 of gestation. This stress increased the abortion rate of these mice from around 12% to 44%. Treatment with dydrogesterone reduced the abortion in a dose-related manner to as low as 5%.

[2] = system: Th1 cytokine production to trophoblast; conditions: in vitro, women with recurrent pregnancy loss; Choi et al., Human Reproduction 15/1 (2000) 46-59; cited from earlier work
[3] = PHA-stimulated PBMC supernatant, ELISA, 96 hours
[4] = women with spontaneous abortion and habitual abortion

Compound	IFN-γ [1, 3]	Interleukin 4 [1, 3]	Interleukin 6 [1, 3]	Th1/Th2 bias ([1]; PHA-stimulated PBMC, 96 hours, women with spontaneous and habitual abortion)	activity of lymphocytes [1, 4]	release of progesterone induced blocking factor (PIBF) [1, 4]	Th1/Th2-cytokine production (pregnant mice; murine stress-induced abortion model)	abortion rate (pregnant mice; pregnant mice exposed to ultrasound on day 5 of gestation, dose-related, stress raised rate from around 12% to 44%) [%]	level of IL-4 (pregnant mice; pregnant mice exposed to ultrasound stress on day 5 of gestation)	embryotoxic Th1 cytokine production to trophoblast [2]
CC(=O)[C@H]1CC[C@H]2[C@@H]3C=CC4=CC(=O)CC[C@@]4(C)[C@@H]3CC[C@]12C [dydrogesterone]	reduction of IFN-γ	marked increase	marked increase	shift from a Th1 towards a Th2 bias	reduced the activity of lymphocytes	increased release	shift from Th1 to Th2-cytokine production	≥ 5	increased level	
CC(=O)[C@H]1CC[C@H]2[C@@H]3CCC4=CC(=O)CC[C@]4(C)[C@H]3CC[C@]12C [progesterone]										inhibits
